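All cell lines were grown in 96-well plates and treated with compound for 48 hours. TGI: concentration producing complete growth inhibition.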 Where a SMILES comes first, the peptide text is derived from it. The star is where a group is joined. Cbz = O=C(OCc1ccccc1)* Bounds are passed on as bounds.

Test systems include A549 NSCLC; ACHN renal; HCT-116 colon; K-562 leukemia; M14 melanoma; MDA-MB-231 breast; OVCAR-5 ovarian; SF-295 CNS; SK-MEL-28 melanoma; SN12C renal; UACC-257 melanoma.
What all share (test): NCI-60 cell line screen, 48 h

In the case of `O=C1C=C(Nc2ccc(S(=O)(=O)Nc3nccs3)cc2)c2ccccc2C1=O`, the TGI in the experiment on A549 NSCLC was above 100 µM; in the experiment with ACHN renal, 63.5 µM; in the experiment on HCT-116 colon, above 100 µM; in the experiment with K-562 leukemia it was above 100 µM; in the experiment with M14 melanoma it was 42.8 µM; in the experiment on MDA-MB-231 breast it was 71.3 µM. For the same compound, the TGI was 43.9 µM in the experiment with OVCAR-5 ovarian; 32.3 µM in the experiment on SF-295 CNS; 45.2 µM in the experiment on SK-MEL-28 melanoma; 47.2 µM in the experiment on SN12C renal; above 100 µM in the experiment on UACC-257 melanoma.

On to `Cc1c2ccc3ccccc3c2c[n+]2ccccc12`, for which the TGI with A549 NSCLC is above 100 µM; with ACHN renal it was above 100 µM; in the experiment on HCT-116 colon, above 83.3 µM; in the experiment on K-562 leukemia it was 54.6 µM; with M14 melanoma, 37.5 µM; in the experiment with MDA-MB-231 breast it was above 82.3 µM. For the same compound, the TGI in the experiment on OVCAR-5 ovarian is above 100 µM; in the experiment on SF-295 CNS, 24.8 µM; in the experiment on SK-MEL-28 melanoma it was 28.7 µM; in the experiment on SN12C renal, 13.4 µM; in the experiment with UACC-257 melanoma, 23.8 µM.

On to `O=P1(Cc2ccccc2)N(Cc2ccccc2)[C@@H]2CCCC[C@H]2N1Cc1ccccc1`, for which the TGI in the experiment with A549 NSCLC amounted to 19.7 µM; with ACHN renal it was 25.5 µM; in the experiment on HCT-116 colon, 20 µM; in the experiment with K-562 leukemia, 19.2 µM; in the experiment on M14 melanoma, 16.6 µM; with MDA-MB-231 breast, 24.9 µM. The TGI in the experiment on OVCAR-5 ovarian amounted to 24.7 µM; in the experiment with SF-295 CNS, 21.1 µM; in the experiment on SK-MEL-28 melanoma, 33.2 µM; in the experiment with SN12C renal it was 23.2 µM; with UACC-257 melanoma it was 20.1 µM.

`CCCCCCCCCCCC(=O)OC[C@@H](C[As](=O)(O)O)OC(=O)CCCCCCCCCCC`: the TGI in the experiment with A549 NSCLC was 31.3 µM; in the experiment with ACHN renal, 10.4 µM; in the experiment on HCT-116 colon, 21.7 µM; with K-562 leukemia it was above 55.1 µM; in the experiment with M14 melanoma it was 8.47 µM; in the experiment on MDA-MB-231 breast it was 15.4 µM. In addition, the TGI with OVCAR-5 ovarian came out at 30.8 µM; with SF-295 CNS, 27.1 µM; in the experiment with SK-MEL-28 melanoma it was 11.3 µM; in the experiment with SN12C renal, 19.8 µM; with UACC-257 melanoma it was 31.7 µM.

Turning to `Cc1[nH]n(-c2nc(O)c(-c3ccccc3)c(=O)[nH]2)c(=O)c1CCO`, the TGI in the experiment on A549 NSCLC, with ACHN renal, with HCT-116 colon, with K-562 leukemia, in the experiment with M14 melanoma and in the experiment on MDA-MB-231 breast was above 100 µM in each case. Besides, the TGI with OVCAR-5 ovarian, in the experiment with SF-295 CNS, in the experiment with SK-MEL-28 melanoma, with SN12C renal and with UACC-257 melanoma was above 100 µM each time.

For `C=CC1(CC[C@]2(c3ccc(OC)c(OC)c3)C=[N+]([O-])O[C@H](O[C@@H]3CCCC[C@H]3C(C)(C)c3ccccc3)C2)OCC(C)(C)CO1`, the TGI in the experiment with A549 NSCLC was above 54.8 µM; in the experiment on ACHN renal it was above 50 µM; in the experiment with HCT-116 colon it was 41.3 µM; in the experiment with K-562 leukemia, above 56.9 µM; with M14 melanoma it was above 58.1 µM; in the experiment with MDA-MB-231 breast, 33.9 µM. Also, the TGI with OVCAR-5 ovarian was 39 µM; in the experiment on SF-295 CNS, above 51.2 µM; in the experiment with SK-MEL-28 melanoma, 53.8 µM; with SN12C renal, 22.8 µM; in the experiment with UACC-257 melanoma it was above 54.2 µM.

Consider `CCOC(=O)CCC(NC(=O)OCc1ccccc1)C(=O)NC(CCC(=O)OCC)C(=O)OCC` (stereo unspecified) (Cbz-Glu(OEt)-Glu(OEt)-OEt; configuration not given here), for which the TGI in the experiment with A549 NSCLC, in the experiment on ACHN renal, in the experiment with HCT-116 colon, with K-562 leukemia, in the experiment on M14 melanoma and in the experiment with MDA-MB-231 breast was above 100 µM throughout. Moreover, the TGI in the experiment on OVCAR-5 ovarian, with SF-295 CNS, in the experiment on SK-MEL-28 melanoma, in the experiment on SN12C renal and with UACC-257 melanoma was above 100 µM throughout.

For `O=[N+]([O-])c1c(F)c(F)c2c(c1F)N(CCCCCl)c1ccccc1S2`, the TGI in the experiment on A549 NSCLC is 31.8 µM; with ACHN renal it was 30.4 µM; with HCT-116 colon, 11.2 µM; with K-562 leukemia, 4.74 µM; in the experiment with M14 melanoma it was 18.2 µM; in the experiment with MDA-MB-231 breast it was 21.9 µM. In addition, the TGI with OVCAR-5 ovarian was determined as 33.6 µM; with SF-295 CNS, 31.1 µM; with SK-MEL-28 melanoma, 10.9 µM; in the experiment with SN12C renal, 20.2 µM; in the experiment with UACC-257 melanoma, 27.5 µM.

As for `CC1CC(Nc2ccc(Br)cc2)N(C(=O)c2ccc(Br)cc2)O1` (stereo unspecified), the TGI in the experiment with A549 NSCLC, in the experiment with ACHN renal, in the experiment on HCT-116 colon, in the experiment with K-562 leukemia, with M14 melanoma and with MDA-MB-231 breast was above 10 µM throughout. The TGI with OVCAR-5 ovarian, with SF-295 CNS, with SK-MEL-28 melanoma, in the experiment with SN12C renal and with UACC-257 melanoma was above 10 µM in each case.

For `COc1cccc(CC(=O)N2CCN(CCCc3ccccc3)CC2)c1`, the TGI in the experiment with A549 NSCLC, with ACHN renal, in the experiment on HCT-116 colon, in the experiment on K-562 leukemia, with M14 melanoma and in the experiment on MDA-MB-231 breast was above 100 µM throughout. Further, the TGI with OVCAR-5 ovarian, in the experiment on SF-295 CNS, with SK-MEL-28 melanoma, with SN12C renal and in the experiment with UACC-257 melanoma was above 100 µM each time.

With `CN1CC=C(c2c(N)nc(N)[nH]c2=O)CC1`, the TGI in the experiment on A549 NSCLC, in the experiment on ACHN renal, in the experiment on HCT-116 colon, with K-562 leukemia, with M14 melanoma and in the experiment on MDA-MB-231 breast was above 100 µM throughout. The TGI in the experiment on OVCAR-5 ovarian, with SF-295 CNS, in the experiment on SK-MEL-28 melanoma, in the experiment on SN12C renal and with UACC-257 melanoma was above 100 µM throughout.
